From publication PMC3004914, “Classification of Drugs Based on Properties of Sodium Channel Inhibition: A Comparative Automated Patch-Clamp Study” (PLoS ONE, 2010)
Read-outs that look alike come from different tables or passages of the source.

How the values were obtained:
[1] = human plasma, cited from earlier work
[2] = molecular target: T1, rNav1.2 sodium channels (HEK-293 cells) (Rattus norvegicus, UniProt P04775); assay: 5 Hz train protocol, QPatch automated patch-clamp; assay type: cell-based; settings: for potency estimated from few doses: −90 mV; for τoff: 500 s assigned where irreversible; for Rev (reversibility): Rev = A5/A1 after washout;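 on UD (use-dependence of the inhibition): UD = (A3/A4)/(A1/A2) as ratios of peak amplitudes from Figure 1A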
Description: The dynamics of the onset and offset of inhibition was monitored using 5 Hz trains of five depolarizing pulses from a holding potential of −90 mV to −10 mV. The trains were repeated every 20 s. Drugs were applied after 10 control trains and 10 trains were delivered in the presence of the drug. The drug was then washed out, and the 10 trains were repeated.
We measured inhibition (Inh; from which we calculated IC50 values as described in Materials and Methods), reversibility of inhibition (Rev) and use-dependence (UD), as well as time constant of onset (τon) and offset (τoff). The calculation of IC50, quantification of Rev and UD, and the determination of time constants are illustrated in Figure 1A. Because τon should be concentration-dependent if we assume a single binding reaction, we excluded it from the analyses. […] Comments on the interpretation of these properties (Rev, […] and UD) are in Results S1.
(§1) A)–D) Peak amplitudes of evoked currents (5 Hz trains of 5 depolarizations from −90 to −10 mV) are plotted against time. Black dots: Control. Grey dots: Drug perfusion. […] Calculation of properties of inhibition is illustrated. […] E) Calculation of Kr and Ki values from steady-state availability curves.
(§2) HEK-293 cells stably expressing rNav1.2 sodium channels were obtained from NeuroSearch (Ballerup, Denmark).
(§3) Cells were automatically prepared for application to the chips (centrifuged and washed twice, then resuspended in extracellular solution) as described previously. Composition of the extracellular solution was: (in mM): 140 NaCl, 3 KCl, 1 CaCl2, 1 MgCl2, 0.1 CdCl2, 20 TEA-Cl, 5 HEPES, adjusted to pH 7.3, Osmolality: ∼320 mOsm.
(§4) All electrophysiological experiments were conducted on Qpatch-16 or QPatch HT instruments using QPlate™ chips. For a detailed description of the instrument and the patch-clamp chips see [37], [38]. Data were sampled at a frequency of 25 kHz and filtered at 5 kHz. […] The amplifier was controlled and the data were collected by the Sophion QPatch client software. For initial data analysis the QPatch software was used. Built-in amplifiers provide an improved method for series resistance compensation. Leak subtraction (based on a standard P/n protocol) was used to subtract the capacitive component of currents.
From this protocol we extracted five parameters, as illustrated in Figure 1A. We calculated inhibition of a single “cc” concentration: Inh = (amplitudectr – amplitudedrug)/amplitudectr.

[3] = molecular target: T1, rNav1.2 sodium channels (HEK-293 cells); assay: steady-state inactivation protocol (availability curves), QPatch automated patch-clamp; assay type: cell-based
Description: as §1
Standard steady-state inactivation protocols were used to measure the shift of steady-state availability curve caused by the drugs. Currents were evoked by a 10 ms test pulse to −10 mV, preceded by 400 ms pre-pulses from −150 to −30 mV. […] Because the inhibition at hyperpolarized potentials (Inh−150), and the shift of the availability curves (ΔV1/2) are both concentration-dependent properties, we calculated affinities to hyperpolarized and depolarized states (“resting state affinity”: Kr, and “inactivated state affinity”: Ki), which, on the other hand, are concentration-independent characteristics of individual drugs. Calculation of Kr and Ki values are described in Materials and Methods, and illustrated in Figure 1E. State-dependence (SD) was quantified as the ratio Kr/Ki.
as §2, §3, §4
Inactivated affinity (Ki) values were calculated assuming a simple four-state model of drug binding and channel gating, using two separate methods: (1) from the shift of the availability curve (ΔV1/2), the slope of the Boltzmann fit of the availability curve (k) and Kr, using the formula described by Bean, Cohen and Tsien (Ki−ΔV1/2; see Figure 1E), or (2) from the apparent affinity (Kapp) at a certain pre-pulse potential, which was calculated from the inhibition (e.g. Inh−60) as described above, and the availability (h) at the same pre-pulse potential, using the formula from Kuo and Bean (Figure 1E). […] (Arithmetic means and SEM values are given in Results S7.)

[4] = HEK293, 100 μM, −90 mV holding potential, 5 Hz train, read-out: Inh (inhibited fraction)
[5] = HEK293, calculated from Inh at single concentration 100 μM, 5 Hz train, read-out: IC50
[6] = HEK293, 100 µM, read-out: Inh (inhibited fraction) at holding potential −150 mV
[7] = arithmetic mean, 100 µM, read-out: Ki-Kapp arith
[8] = arithmetic mean, 100 µM, read-out: Ki-ΔV1/2 arith
[9] = arithmetic mean, 100 µM, read-out: Kr arith
[10] = geometric mean, from Inh at −150 mV, 100 µM, read-out: Kr (resting state affinity)
[11] = geometric mean, from apparent affinity, 100 µM, read-out: Ki−Kapp (inactivated state affinity)
[12] = geometric mean, from shift of availability curve, 100 µM, read-out: Ki−ΔV1/2 (inactivated state affinity)

T1 sequence (P04775 whole entry): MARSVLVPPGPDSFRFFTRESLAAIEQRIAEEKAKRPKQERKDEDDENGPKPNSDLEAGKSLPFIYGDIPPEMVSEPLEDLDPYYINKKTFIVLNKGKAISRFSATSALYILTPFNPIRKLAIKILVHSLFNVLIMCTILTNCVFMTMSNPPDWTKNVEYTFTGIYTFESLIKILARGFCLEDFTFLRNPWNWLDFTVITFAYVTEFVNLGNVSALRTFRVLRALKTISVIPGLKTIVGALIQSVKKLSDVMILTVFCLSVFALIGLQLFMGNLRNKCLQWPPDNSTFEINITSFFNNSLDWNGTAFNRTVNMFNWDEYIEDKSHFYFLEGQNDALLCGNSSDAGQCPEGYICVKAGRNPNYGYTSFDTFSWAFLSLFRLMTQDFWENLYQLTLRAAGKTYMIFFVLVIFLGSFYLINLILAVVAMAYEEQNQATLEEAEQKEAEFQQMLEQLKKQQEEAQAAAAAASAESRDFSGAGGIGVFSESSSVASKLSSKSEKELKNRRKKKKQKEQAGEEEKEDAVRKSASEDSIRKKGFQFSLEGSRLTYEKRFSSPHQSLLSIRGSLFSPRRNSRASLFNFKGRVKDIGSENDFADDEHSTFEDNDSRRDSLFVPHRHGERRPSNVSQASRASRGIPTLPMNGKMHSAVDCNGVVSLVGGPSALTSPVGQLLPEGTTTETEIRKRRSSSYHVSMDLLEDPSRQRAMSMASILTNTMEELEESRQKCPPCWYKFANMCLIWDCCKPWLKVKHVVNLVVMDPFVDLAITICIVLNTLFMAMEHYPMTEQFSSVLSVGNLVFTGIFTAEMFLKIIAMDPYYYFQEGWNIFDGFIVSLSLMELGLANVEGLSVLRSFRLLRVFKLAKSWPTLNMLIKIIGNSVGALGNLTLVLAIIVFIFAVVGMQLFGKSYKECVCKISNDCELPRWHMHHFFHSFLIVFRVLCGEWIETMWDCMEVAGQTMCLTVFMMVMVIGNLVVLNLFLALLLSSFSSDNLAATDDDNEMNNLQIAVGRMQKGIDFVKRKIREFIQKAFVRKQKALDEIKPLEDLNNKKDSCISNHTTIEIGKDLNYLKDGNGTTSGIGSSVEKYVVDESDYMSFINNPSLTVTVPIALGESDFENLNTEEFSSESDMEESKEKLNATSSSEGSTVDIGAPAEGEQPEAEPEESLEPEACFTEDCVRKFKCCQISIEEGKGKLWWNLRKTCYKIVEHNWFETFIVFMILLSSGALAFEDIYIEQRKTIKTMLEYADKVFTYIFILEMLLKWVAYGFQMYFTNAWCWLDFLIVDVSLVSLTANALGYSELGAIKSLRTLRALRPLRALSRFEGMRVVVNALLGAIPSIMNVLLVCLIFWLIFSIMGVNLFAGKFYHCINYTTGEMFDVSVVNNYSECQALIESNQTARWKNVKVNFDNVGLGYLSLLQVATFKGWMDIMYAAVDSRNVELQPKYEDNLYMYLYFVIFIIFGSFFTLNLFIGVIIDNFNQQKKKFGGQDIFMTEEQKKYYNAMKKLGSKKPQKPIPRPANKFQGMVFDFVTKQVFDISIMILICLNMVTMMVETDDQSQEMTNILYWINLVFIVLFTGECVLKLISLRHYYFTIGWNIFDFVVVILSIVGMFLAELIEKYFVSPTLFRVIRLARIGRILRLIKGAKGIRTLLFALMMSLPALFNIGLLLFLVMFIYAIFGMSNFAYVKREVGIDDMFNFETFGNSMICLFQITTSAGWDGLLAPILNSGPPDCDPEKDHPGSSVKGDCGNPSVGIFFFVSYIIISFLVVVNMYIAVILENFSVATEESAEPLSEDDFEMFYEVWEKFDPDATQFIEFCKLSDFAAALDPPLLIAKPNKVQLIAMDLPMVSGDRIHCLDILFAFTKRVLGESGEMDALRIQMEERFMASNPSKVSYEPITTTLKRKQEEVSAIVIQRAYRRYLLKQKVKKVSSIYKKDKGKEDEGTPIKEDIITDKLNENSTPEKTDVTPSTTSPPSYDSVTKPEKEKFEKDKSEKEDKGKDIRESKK

## O=C(CCCN1CCC(O)(c2ccc(Cl)cc2)CC1)c1ccc(F)cc1 [HAL, Haloperidol]
[1]; as printed in each cell
  plasma conc.: 0.02 [44] µg/ml
[1]; as printed in the µg/ml cell
  plasma conc.: 0.053 µM

## CN1CCN(C2=Nc3cc(Cl)ccc3Nc3ccccc32)CC1 [CLZ, Clozapine]
[1]; as printed in each cell
  plasma conc.: 0.55 [44] µg/ml
[1]; as printed in the µg/ml cell
  plasma conc.: 1.671 µM

## NCC1(CC(=O)O)CCCCC1 [GAB, Gabapentin]
[1]; as printed in each cell
  plasma conc.: 4 [44] µg/ml
[1]; as printed in the µg/ml cell
  plasma conc.: 23.359 µM
[2]; HEK293, read-out: IC50, calculated from Inh at single concentration 300 μM, 5 Hz train
  potency estimated from few doses: 14700 µM
[2]; HEK293, read-out: Inh (inhibited fraction)
  inhibition at 300 µM: 3%

## C#CCN(C)[C@H](C)Cc1ccccc1 [DPR, R-(-)-Deprenyl]
[2]
  IC50 compared to plasma concentration: exceedingly high
[2]; 300 μM, −90 mV holding potential, 5 Hz train
  Inh (inhibited fraction): 0.22

## CCc1nn(CCCN2CCN(c3cccc(Cl)c3)CC2)c(=O)n1CCOc1ccccc1 [NFZ, Nefazodone]
[1]; as printed in each cell
  plasma conc.: 1.52 [48] µg/ml
[1]; as printed in the µg/ml cell
  plasma conc.: 3.007 µM
[2]; 30 μM
  τon: 8.75 s
  τoff: 10.93 s
  Rev (reversibility): 0.51
[2]; 30 μM, 5 Hz train
  UD (use-dependence of the inhibition): 1.22
[2]; HEK293, 30 μM, −90 mV holding potential, 5 Hz train, read-out: Inh (inhibited fraction)
  inhibition at 30 µM: 39%
[2]; HEK293, calculated from Inh at single concentration 30 μM, 5 Hz train, read-out: IC50
  potency estimated from few doses: 46.4 µM
[3]; 30 μM
  ΔV1/2 (shift of availability curve): −17.4 mV
[3]; HEK293, 30 µM, read-out: Inh (inhibited fraction) at holding potential −150 mV
  inhibition at 30 µM: 9%
[3]; arithmetic mean, 30 µM, read-out: Ki-Kapp arith
  Ki: 1.1 µM
[3]; arithmetic mean, 30 µM, read-out: Ki-ΔV1/2 arith
  Ki: 1.05 µM
[3]; geometric mean, from Inh at −150 mV, 30 µM, read-out: Kr (resting state affinity)
  Kd: 567 µM
[3]; geometric mean, from apparent affinity, 30 µM, read-out: Ki−Kapp (inactivated state affinity)
  Ki: 0.92 µM
[3]; geometric mean, from shift of availability curve, 30 µM, read-out: Ki−ΔV1/2 (inactivated state affinity)
  Ki: 0.87 µM

## O=c1n(CCCN2CCN(c3cccc(Cl)c3)CC2)nc2ccccn12 [TRZ, Trazodone]
[1]; as printed in each cell
  plasma conc.: 1.5 [44] µg/ml
[1]; as printed in the µg/ml cell
  plasma conc.: 3.673 µM

## CN1CCN2c3ncccc3Cc3ccccc3C2C1 (stereo not shown) [MRZ, Mirtazapine]
[2]; 100 μM
  τon: 3.99 s
  τoff: 7.47 s
  Rev (reversibility): 0.89
[2]; 100 μM, 5 Hz train
  UD (use-dependence of the inhibition): 1.14
[2]; [4]
  inhibition at 100 µM: 43%
[2]; [5]
  potency estimated from few doses: 132 µM
[3]; [6]
  inhibition at 100 µM: 24%
[3]; [7]
  Ki: 7.94 µM
[3]; [8]
  Ki: 5.65 µM
[3]; [9]
  Kd: 317 µM
[3]; [10]
  Kd: 317 µM
[3]; [11]
  Ki: 7.62 µM
[3]; [12]
  Ki: 5.63 µM

## Fc1ccc(C(c2ccc(F)cc2)N2CCN(C/C=C/c3ccccc3)CC2)cc1 [FLR, Flunarizine]
[1]; as printed in each cell
  plasma conc.: 0.06 [58] µg/ml
[1]; as printed in the µg/ml cell
  plasma conc.: 0.113 µM

## CN1CCN2c3ccccc3Cc3ccccc3C2C1 (stereo not shown) [MIA, Mianserin]
[1]; as printed in each cell
  plasma conc.: 0.01 [47] µg/ml
[1]; as printed in the µg/ml cell
  plasma conc.: 0.037 µM

## O=C(NCCN1CCOCC1)c1ccc(Cl)cc1 [MCL, Moclobemide]
[1]; as printed in each cell
  plasma conc.: 0.29 [49] µg/ml
[2]; [4]
  inhibition at 100 µM: 9%
[2]; [5]
  potency estimated from few doses: 1010 µM

## O=C(O)Cc1ccccc1Nc1c(Cl)cccc1Cl [DIC, Diclofenac]
[1]; as printed in each cell
  plasma conc.: 2 [44] µg/ml
[1]; as printed in the µg/ml cell
  plasma conc.: 6.287 µM
[2]; 100 μM
  τon: 7.19 s
  τoff: 26.43 s
  Rev (reversibility): 0.95
[2]; 100 μM, 5 Hz train
  UD (use-dependence of the inhibition): 1.01
[2]; [5]
  potency estimated from few doses: 561 µM
[3]; [6]
  inhibition at 100 µM: 3%
[3]; [7]
  Ki: 98.4 µM
[3]; [8]
  Ki: 102 µM
[3]; [9]
  Kd: 3300 µM
[3]; [10]
  Kd: 3120 µM
[3]; [11]
  Ki: 87.8 µM
[3]; [12]
  Ki: 81 µM
